Assay results as given in publication PMC6018746, “Activation of the p53-MDM4 regulatory axis defines the anti-tumour response to PRMT5 inhibition through its role in regulating cellular splicing” (Scientific Reports, 2018).
Like-named read-outs stand apart in the source and are kept apart here.

Tested on: panel of hematologic and solid cancer lines
Test: 6-day in vitro growth/death assay
Format: cell-based, human
Details: read-out: gIC50
Method: To further develop these molecules and to guide clinical strategy, it was necessary to understand sensitivity in preclinical models by assessing the anti-tumour activity of the PRMT5 inhibitors in various cancers.
Cell lines were obtained from ATCC or DSMZ and were grown in recommended medium, which was most frequently RPMI-1640 containing 10% FBS. Cell line proliferation assays, Western blotting, qRT-PCR, and cell cycle analyses were performed as described previously[27],[28]. Antibody and gene expression reagents are as described in Supplementary Table 16. All studies were conducted in accordance with the GSK Policy on the Care, Welfare and Treatment of Laboratory Animals and were reviewed by the Institutional Animal Care and Use Committee either at GSK or by the ethical review process at the institution where the work was performed. Detailed descriptions of all methods can be found in the Supplemental Materials.

Compound: O=C(NC[C@H](O)CN1CCc2ccccc2C1)c1ccnc(NC2CCC2)c1 [GSK3203591]
- IC50 5637: 143 nM
- IC50 (A172): 590 nM
- IC50 (BJAB): 3100 nM
- IC50 (DOHH-2): 116 nM
- IC50 (HCC70): 522 nM
- IC50 (HCC1143): 509 nM
- IC50 (HCC1806): 261 nM
- IC50 (Homo sapiens, 1A2, 1A2): 333 nM
- IC50 (Homo sapiens, 22Rv1, 22Rv1): 23500 nM
- IC50 (Homo sapiens, 639-V): 731 nM
- IC50 (Homo sapiens, 647-V): 426 nM
- IC50 (Homo sapiens, 769-P): > 29300 nM
- IC50 (Homo sapiens, 5637): 143 nM
- IC50 (Homo sapiens, A 172, A172): 590 nM
- IC50 (Homo sapiens, A204, A204): > 29000 nM
- IC50 (Homo sapiens, A498, A498): 435 nM
- IC50 (Homo sapiens, A549, A549): 837 nM
- IC50 (Homo sapiens, A-375, A-375): 647 nM
- IC50 (Homo sapiens, A-427, A427): 276 nM
- IC50 (Homo sapiens, AML-193): 1400 nM
- IC50 (Homo sapiens, AMO1, AMO-1): 337 nM
- IC50 (Homo sapiens, ARH-77, ARH-77): 238 nM
- IC50 (Homo sapiens, ASPC1, ASPC1): 424 nM
- IC50 (Homo sapiens, BC-3C): 408 nM
- IC50 (Homo sapiens, BFTC-905, BFTC-905): 440 nM
- IC50 (Homo sapiens, BJAB): 3100 nM
- IC50 (Homo sapiens, BT-20, BT-20): 8160 nM
- IC50 (Homo sapiens, BT-474, BT-474): 5740 nM
- IC50 (Homo sapiens, BT-549, BT549): 17800 nM
- IC50 (Homo sapiens, CA46, CA-46): 580 nM
- IC50 (Homo sapiens, CAKI-1, Caki-1): 578 nM
- IC50 (Homo sapiens, CAL-29): 817 nM
- IC50 (Homo sapiens, CAL-51, CAL-51): 2300 nM
- IC50 (Homo sapiens, CAL-85-1, CAL-85-1): 1740 nM
- IC50 (Homo sapiens, CAMA-1, CAMA-1): 7330 nM
- IC50 (Homo sapiens, CAPAN-1, CAPAN1): 1110 nM
- IC50 (Homo sapiens, CHP-212, CHP-212): 16.3 nM
- IC50 (Homo sapiens, COLO 201, Colo 201): 661 nM
- IC50 (Homo sapiens, COLO 205, Colo 205): 694 nM
- IC50 (Homo sapiens, COLO 320DM, COLO-320DM): 2350 nM
- IC50 (Homo sapiens, COLO-320-HSR, Colo 320 HSR): 2220 nM
- IC50 (Homo sapiens, COLO-741, COLO-741): 2910 nM
- IC50 (Homo sapiens, COR-L23, COR-L23): 786 nM
- IC50 (Homo sapiens, COR-L105, COR-L105): > 29300 nM
- IC50 (Homo sapiens, Caco-2, CaCo-2): 740 nM
- IC50 (Homo sapiens, Calu-1, Calu1): > 29300 nM
- IC50 (Homo sapiens, Calu-6, Calu6): 1280 nM
- IC50 (Homo sapiens, Capan-2, CAPAN2): 1060 nM
- IC50 (Homo sapiens, ChaGo-K-1, Cha-Go-K1): 2820 nM
- IC50 (Homo sapiens, DB): 346 nM
- IC50 (Homo sapiens, DBTRG-05MG, DBTRG05MG): > 29300 nM
- IC50 (Homo sapiens, DLD-1, DLD-1): 2430 nM
- IC50 (Homo sapiens, DMS-114, DMS114): 9170 nM
- IC50 (Homo sapiens, DMS-273, DMS273): 262 nM
- IC50 (Homo sapiens, DOHH-2, DOHH-2): 116 nM
- IC50 (Homo sapiens, DU-145, DU145): 3720 nM
- IC50 (Homo sapiens, DU-4475, DU-4475): 1010 nM
- IC50 (Homo sapiens, EBC-1, EBC-1): 239 nM
- IC50 (Homo sapiens, EFM-19, EFM-19): 162 nM
- IC50 (Homo sapiens, F-36P): 1880 nM
- IC50 (Homo sapiens, G-361, G-361): 4360 nM
- IC50 (Homo sapiens, G-401, G-401): 189 nM
- IC50 (Homo sapiens, GDM-1, GDM-1): 42.3 nM
- IC50 (Homo sapiens, GF-D8): 33200 nM
- IC50 (Homo sapiens, HCC38, HCC38): 127 nM
- IC50 (Homo sapiens, HCC70, HCC70): 522 nM
- IC50 (Homo sapiens, HCC827, HCC827): 21000 nM
- IC50 (Homo sapiens, HCC1143, HCC1143): 509 nM
- IC50 (Homo sapiens, HCC1395, HCC1395): 14700 nM
- IC50 (Homo sapiens, HCC1569, HCC1569): 11300 nM
- IC50 (Homo sapiens, HCC1806, HCC1806): 261 nM
- IC50 (Homo sapiens, HCC1937, HCC1937): 956 nM
- IC50 (Homo sapiens, HCC2935, HCC2935): 21600 nM
- IC50 (Homo sapiens, HCC4006, HCC4006): 170 nM
- IC50 (Homo sapiens, HCT-15, HCT-15): 1250 nM
- IC50 (Homo sapiens, HCT-116, HCT-116): 10000 nM
- IC50 (Homo sapiens, HD-MY-Z): 143 nM
- IC50 (Homo sapiens, HEL 92.1.7, HEL 92.1.7): 12400 nM
- IC50 (Homo sapiens, HL-60, HL60): 4270 nM
- IC50 (Homo sapiens, HOS): > 29000 nM
- IC50 (Homo sapiens, HPAC): 901 nM
- IC50 (Homo sapiens, HPAF-II, HPAFII): 957 nM
- IC50 (Homo sapiens, HT115, HT115): 1740 nM
- IC50 (Homo sapiens, HT-29, HT-29): 1810 nM
- IC50 (Homo sapiens, HT-144, HT-144): 1050 nM
- IC50 (Homo sapiens, HT-1376, HT-1376): 13100 nM
- IC50 (Homo sapiens, HT): 272 nM
- IC50 (Homo sapiens, Hs 445, Hs445): 976 nM
- IC50 (Homo sapiens, Hs766T): 1970 nM
- IC50 (Homo sapiens, Hs-578T, Hs578t): 18200 nM
- IC50 (Homo sapiens, HuNS1, Huns1): 887 nM
- IC50 (Homo sapiens, HuP-T3, HuP-T3): 3390 nM
- IC50 (Homo sapiens, HuP-T4, HuP-T4): 190 nM
- IC50 (Homo sapiens, HuT78, HuT78): 103 nM
- IC50 (Homo sapiens, IGR-1, IGR-1): 8760 nM
- IC50 (Homo sapiens, IGROV-1, IGROV-1): 189 nM
- IC50 (Homo sapiens, J82, J82): 20900 nM
- IC50 (Homo sapiens, JJN-3, JJN3): 164 nM
- IC50 (Homo sapiens, JM1, JM1): 75.8 nM
- IC50 (Homo sapiens, JMSU-1, JMSU-1): 583 nM
- IC50 (Homo sapiens, JVM-2, JVM-2): 172 nM
- IC50 (Homo sapiens, JY): 95.1 nM
- IC50 (Homo sapiens, JeKo-1, JeKo-1): 6190 nM
- IC50 (Homo sapiens, K562, K562): 310 nM
- IC50 (Homo sapiens, KMS-11, KMS-11): 46.8 nM
- IC50 (Homo sapiens, KMS-12-BM): 190 nM
- IC50 (Homo sapiens, KO52): 513 nM
- IC50 (Homo sapiens, KP-3): 99.9 nM
- IC50 (Homo sapiens, KP-4, KP-4): 20800 nM
- IC50 (Homo sapiens, KPL-1, KPL-1): 4110 nM
- IC50 (Homo sapiens, KS-1): 85.5 nM
- IC50 (Homo sapiens, KU-19-19, KU-19-19): 1110 nM
- IC50 (Homo sapiens, Kasumi 1, KASUMI-1): 13200 nM
- IC50 (Homo sapiens, L-363, L363): 65.7 nM
- IC50 (Homo sapiens, L-428, L-428): 665 nM
- IC50 (Homo sapiens, LC-1sq): 7590 nM
- IC50 (Homo sapiens, LK-2, LK2): 89.9 nM
- IC50 (Homo sapiens, LN-18, LN-18): 9680 nM
- IC50 (Homo sapiens, LN-229, LN-229): 1150 nM
- IC50 (Homo sapiens, LNCaP): 18900 nM
- IC50 (Homo sapiens, LP-1, LP1): 975 nM
- IC50 (Homo sapiens, LS-411N, Ls411N): 442 nM
- IC50 (Homo sapiens, LoVo): 494 nM
- IC50 (Homo sapiens, Lu-65, LU65): 463 nM
- IC50 (Homo sapiens, Lu-99, LU-99): 5300 nM
- IC50 (Homo sapiens, M059J): 18900 nM
- IC50 (Homo sapiens, M059K): 7890 nM
- IC50 (Homo sapiens, MC116, MC116): 82 nM
- IC50 (Homo sapiens, MC/CAR): 2740 nM
- IC50 (Homo sapiens, MCF7, MCF-7): 215 nM
- IC50 (Homo sapiens, MDA-MB-157, MDA-MB-157): 3250 nM
- IC50 (Homo sapiens, MDA-MB-231, MDA-MB-231): 2930 nM
- IC50 (Homo sapiens, MDA-MB-435S): 2220 nM
- IC50 (Homo sapiens, MDA-MB-436, MDA-MB-436): 7130 nM
- IC50 (Homo sapiens, MDA-MB-453, MDA-MB-453): 343 nM
- IC50 (Homo sapiens, MDA-MB-468, MDA-MB-468): 585 nM
- IC50 (Homo sapiens, ME-1, ME1): 2450 nM
- IC50 (Homo sapiens, MEL-HO): 1550 nM
- IC50 (Homo sapiens, MEL-JUSO): 79.3 nM
- IC50 (Homo sapiens, MHH-PREB-1, MHH-PREB-1): 3300 nM
- IC50 (Homo sapiens, MIA PaCa-2, Miapaca-2): 263 nM
- IC50 (Homo sapiens, MINO): 536 nM
- IC50 (Homo sapiens, ML-2, ML-2): 115 nM
- IC50 (Homo sapiens, MOLM16, MOLM-16): 31000 nM
- IC50 (Homo sapiens, MOLM-13, MOLM-13): 86.2 nM
- IC50 (Homo sapiens, MOLP-2, MOLP-2): 22100 nM
- IC50 (Homo sapiens, MONO-MAC-6, MonoMac6): 196 nM
- IC50 (Homo sapiens, MV4-11, MV-4-11): 94.7 nM
- IC50 (Homo sapiens, Maver1, MAVER-1): 133 nM
- IC50 (Homo sapiens, NALM-6, NALM-6): 1060 nM
- IC50 (Homo sapiens, NB-4, NB-4): 80.9 nM
- IC50 (Homo sapiens, NCI-H146, NCI-H146): 411 nM
- IC50 (Homo sapiens, NCI-H292, NCI-H292): 1340 nM
- IC50 (Homo sapiens, NCI-H322, NCI-H322): 1700 nM
- IC50 (Homo sapiens, NCI-H441, NCI-H441): 22400 nM
- IC50 (Homo sapiens, NCI-H520, NCI-H520): 26.1 nM
- IC50 (Homo sapiens, NCI-H522, NCI-H522): > 29300 nM
- IC50 (Homo sapiens, NCI-H526, NCI-H526): 138 nM
- IC50 (Homo sapiens, NCI-H526-R): 219 nM
- IC50 (Homo sapiens, NCI-H647, NCI-H647): 2530 nM
- IC50 (Homo sapiens, NCI-H661, NCI-H661): 30800 nM
